Tests used:
[1] = system: patients who have an acute COPD exacerbation; assay: Clinical study in acute COPD exacerbation: dyspnea by Borg CR 10 scores; format: in vivo, human; design: AUC[days 2-14] in Borg CR 10 scores, Difference LS mean, Compound A - prednisone / AUC[days 2-14] in Borg CR 10 scores (adjusted for Day 1), LS mean / AUC[days 2-14] in Borg CR 10 scores, Difference LS mean, treatment - placebo: unit not given beside the values; conditions: for AUC[days 2-14] in Borg CR 10 scores (adjusted for Day 1), LS mean: per treatment arm; for AUC[days 2-14] in Borg CR 10 scores, Difference LS mean, treatment - placebo: versus placebo
Procedure: “BORG Score” as used herein refers to a measurement of dyspnea in accordance with the Borg scale. On that scale 0 represents no breathlessness at all and 10 represents maximum breathlessness.
(§1) An exploratory, randomized, double-blind, placebo controlled, multi-center study to assess the efficacy, safety and tolerability of a single 75 mg dose of 3-[5-amino-4-(3-cyano-benzoyl)-pyrazol-1-yl]-N-cyclopropyl-4-methylbenzamide administered orally to patients who have an acute COPD exacerbation
(§2) The efficacy, safety and tolerability of a single 75 mg dose of 3-[5-amino-4-(3-cyano-benzoyl)-pyrazol-1-yl]-N-cyclopropyl-4-methylbenzamide (Compound A) administered orally to patients who have an acute COPD exacerbation was conducted.
(§3) 90 patients were randomized 1:1:1 to three treatment arms.
(§4) =single 75 mg dose of Compound A on day 1+prednisone placebo×10 days
(§5) =single dose of Compound A placebo on day 1+prednisone placebo×10 days
(§6) =single dose of Compound A placebo on day 1+40 mg oral prednisone […]×10 days
(§7) =doxycycline 100 mg dose×10 days or a non-macrolide antibiotic concurrent with local prescribing antibiotic guidelines.
(§8) Key efficacy endpoints: • FEV1 improvement from baseline at Day 5 • BORG Scores • EXACT PRO: • Recovery defined as reduction in EXACT score ≧9 points benchmarked against the maximum observed score (MOV: highest EXACT score using a 3-day rolling average) over the 14 day period following onset. • Time to recovery • Severity • Maximum severity—highest exact score over 30 days • Total severity—area under the curve from onset (i.e. Day 1) to recovery/Day 30 whichever comes first based on total exact score. • Duration of exacerbation (days from onset to recovery/Day 30) • Frequency of patients who recovered at Day 30 • Treatment failure: • Patients who were treated with oral corticosteroids, admitted to hospital to COPD related symptoms, changed in antibiotic therapy relating to COPD, or in the attending physicians opinion needed treatment for a further exacerbation.
LS is an abbreviation for least squares.

[2] = system: patients who have an acute COPD exacerbation; assay: Clinical study in acute COPD exacerbation: safety and tolerability (adverse events); format: in vivo, human
Procedure: as §1, §2
Secondary objectives: Safety and tolerability, patient reported outcomes, and time to next exacerbation.
as §3, §4, §5, §6, §7
Initial hospitalization for COPD exacerbation at baseline was not recorded as a serious adverse event (SAE). Only subsequent admissions were recorded. […] No rash was noted. No unusual events or imbalances between treatment arms were noted.

[3] = system: patients who have an acute COPD exacerbation; assay: Clinical study in acute COPD exacerbation: patient disposition / discontinuation; format: in vivo; conditions: for Reason for discontinuation: Death: 2nd interim, 30 days of follow-up, Compound A N = 31, Prednisone N = 30; for Reason for discontinuation: Adverse Events: human, in vivo
Procedure: as §1, §2, §3, §4, §5, §6, §7
(§9) Present data (at 2nd interim) includes total of 91 randomized patients with 30 days of follow-up.

[4] = system: patients who have an acute COPD exacerbation; assay: Clinical study in acute COPD exacerbation: efficacy measured by FEV1; format: in vivo, human; conditions: for FEV1 change from baseline, Difference, Compound A v prednisone: single 75 mg oral Compound A v 40 mg oral prednisone x 10 days; for FEV1 change from baseline, Difference, Compound A v placebo: single 75 mg oral dose of Compound A, ANCOVA repeated measurements
Procedure: “Forced Expiratory Volume in One Second” or “FEV1” as used herein is the volume of air that can forcibly be blown out in one second, after full inspiration, which is measured by a spirometer. It is a measure of lung function or performance. Average values for FEV1 in healthy people depend mainly on sex and age. Values of between 80% and 120% of the average value are considered normal.
as §1, §2
Primary objective: Assess the efficacy of a single 75 mg dose of Compound A in COPD patients presenting with an exacerbation as measured by the improvement in FEV1 over the first 5 days of treatment relative to placebo.
as §3, §4, §5, §6, §7
Visits at Days 3, 5 and 14 and follow-up visits 30 and 90 days. End of study visit at 6 months.
as §9
Inclusion criteria for the study population were: • Males/females ≧40 to ≦80 years • GOLD stages 2 to 4 • Smoking history at least 10 pack years • Investigator defined COPD exacerbation
Exclusion criteria for the study population were: • Arterial blood pH <7.26 at randomization • History or presence of clinically uncontrolled left heart failure • Clinical or radiological evidence of pneumonia • Long term Oxygen >15 hours a day • History of clinically significant ECG abnormalities • History or presence of impaired renal function • Use of macrolide antibiotics within 48 hours of randomization
as §8
FEV1 change from baseline analysed with ANCOVA ([…]) model for repeated measurements. Estimated between patient standard deviation—200 ml.

[5] = system: patients who have an acute COPD exacerbation; assay: Clinical study in acute COPD exacerbation: treatment failure composite endpoint; format: in vivo, human; conditions: retreatment with antibiotics, oral steroids, death, hospitalization or treatment indicating another exacerbation
Procedure: as §1, §2, §3, §4, §5, §6
=doxycycline 100 mg dose×10 days or a non-macrolide antibiotic concurrent with local prescribing antibiotic guidelines. […]

[6] = Compound A N = 31, Prednisone N = 30

C[C@]12C=CC(=O)C=C1CC[C@@H]1[C@@H]2C(=O)C[C@@]2(C)[C@H]1CC[C@]2(O)C(=O)CO [Prednisone, prednisone, reference compound]
AUC[days 2-14] in Borg CR 10 scores (adjusted for Day 1), LS mean ([1]; days 2-14): 3.61 | AUC[days 2-14] in Borg CR 10 scores, Difference LS mean, treatment - placebo ([1]; days 2-14, adjusted for Day 1): 0.13 | Number of subjects with AE: Abdominal pain upper [2, 6]: 1 (3.3) n (%) | Number of subjects with AE: Any AE [2, 6]: 12 (40.0) n (%) | Number of subjects with AE: COPD [2, 6]: 5 (16.7) n (%) | Number of subjects with AE: Diarrhoea [2, 6]: 0 (0.0) n (%) | Number of subjects with AE: Dizziness [2, 6]: 0 (0.0) n (%) | Number of subjects with AE: Headache [2, 6]: 3 (10.0) n (%) | Number of subjects with AE: Nasopharyngitis [2, 6]: 1 (3.3) n (%) | Number of subjects with AE: Nausea [2, 6]: 2 (6.7) n (%) | Number of subjects with AE: Occult blood [2, 6]: 1 (3.3) n (%) | Number of subjects with AE: Vertigo [2, 6]: 1 (3.3) n (%) | Reason for discontinuation: Death [3]: 2 (6.7) n (%) | Reason for discontinuation: Adverse Events [3]: 0 (0.0) n (%)

Cc1ccc(C(=O)NC2CC2)cc1-n1ncc(C(=O)c2cccc(C#N)c2)c1N [Compound A, 3-[5-Amino-4-(3-cyanobenzoyl)-pyrazol-1-yl]-N-cyclopropyl-4-methylbenzamide]
Improvement in FEV1 versus placebo and prednisone ([4]; Day 3): greater improvement in FEV1 | FEV1 change from baseline, Difference, Compound A v prednisone ([4]; Day 3): 102.28 mL | FEV1 change from baseline, Difference, Compound A v placebo ([4]; Day 3): 119.59 mL | FEV1 change from baseline, Difference, Compound A v prednisone ([4]; Day 5): 109.15 mL | FEV1 change from baseline, Difference, Compound A v placebo ([4]; Day 5): 46.56 mL | Patients who responded with >100 ml improvement (FEV1) ([4]; day 3, single 75 mg oral dose): 60% | Breathlessness over 14 days compared with prednisone ([1]; over 14 days): on average less breathless | AUC[days 2-14] in Borg CR 10 scores (adjusted for Day 1), LS mean ([1]; days 2-14): 3.25 | AUC[days 2-14] in Borg CR 10 scores, Difference LS mean, treatment - placebo ([1]; days 2-14, adjusted for Day 1): −0.23 | AUC[days 2-14] in Borg CR 10 scores, Difference LS mean, Compound A - prednisone ([1]; versus prednisone, days 2-14, adjusted for Day 1): −0.36 | Treatment failures (composite endpoint) [5]: 0 patients | COPD adverse events ([2]; human, in vivo): No COPD adverse events were observed | Number of subjects with AE: Abdominal pain upper ([2]; human, in vivo): 1 (3.2) n (%) | Number of subjects with AE: Any AE ([2]; human, in vivo): 8 (25.8) n (%) | Number of subjects with AE: COPD ([2]; human, in vivo): 0 (0.0) n (%) | Number of subjects with AE: Diarrhoea ([2]; human, in vivo): 1 (3.2) n (%) | Number of subjects with AE: Dizziness ([2]; human, in vivo): 2 (6.5) n (%) | Number of subjects with AE: Headache ([2]; human, in vivo): 1 (3.2) n (%) | Number of subjects with AE: Nasopharyngitis ([2]; human, in vivo): 1 (3.2) n (%) | Number of subjects with AE: Nausea ([2]; human, in vivo): 0 (0.0) n (%) | Number of subjects with AE: Occult blood ([2]; human, in vivo): 1 (3.2) n (%) | Number of subjects with AE: Vertigo ([2]; human, in vivo): 1 (3.2) n (%) | Safety and tolerability ([2]; human, in vivo): safe and well tolerated | Reason for discontinuation: Death [3]: 0 (0.0) n (%) | Reason for discontinuation: Adverse Events ([3]; 30 days): 0 (0.0) n (%)

Reference: patent publication US9339491B2, “Use of a pyrazole derivative in the treatment of acute exacerbations of chronic obstructive pulmonary disease” (Mereo BioPharma 1 Limited, priority 2012, dated 2016)
